{"source": "patent US20230381192A1", "about": "“METHODS FOR CONTROLLING AND PREDICTING RECOVERY AFTER NMBA ADMINISTRATION” (Cornell University, priority 2020, published 2023)", "experiment": "Phase I pharmacokinetics after single IV bolus", "type": "in vivo", "conditions": "both sexes, human", "procedure": "(Abstract available in the final supplement of the Journal of Anesthesia and Analgesia, May 2020 (Volume 30, Issue pages 73-74), which is incorporated herein by reference. Healthy volunteers (n=34) aged 18 to 55 of either gender gave informed consent to an 1RB-approved Phase I protocol, NMB was measured by mechanomyography during sevoflurane (0.5 MAC)/N20 (70%) anesthesia. Each volunteer received a single IV bolus of RP1000,", "note": "Read-outs that look alike come from different tables or passages of the source.", "data": [{"smiles": "COc1ccc(C[C@@H]2c3cc(OC)c(OC)cc3CC[N@@+]2(C)CCCOC(=O)/C=C/C(=O)OCCC[N@+]2(C)CCc3cc(OC)c(OC)cc3[C@H]2Cc2ccc(OC)c(OC)c2)cc1OC.[Cl-].[Cl-]", "note": "[RP1000]", "values": [{"measurement": "half-life", "setting": "in vivo, intravenous, all dosage groups, read-out: half-life of elimination", "result": "25 to 26", "unit": "min"}, {"measurement": "AUC(0-t)", "setting": "plasma, iv, 0.04 mg/kg, single IV bolus 0.04 mg/kg (n = 6), read-out: AUClast, Geometric Mean (converted)", "result": 132, "unit": "ng·h/mL"}, {"measurement": "AUC(0-t)", "setting": "plasma, iv, 0.04 mg/kg, single IV bolus 0.04 mg/kg (n = 6), read-out: AUClast, Mean (converted)", "result": 6.35, "unit": "ng·h/mL"}, {"measurement": "clearance", "setting": "plasma, iv, 0.04 mg/kg, single IV bolus 0.04 mg/kg (n = 6), read-out: CL (clearance), Geometric Mean", "result": 387, "unit": "mL/min"}, {"measurement": "clearance", "setting": "plasma, iv, 0.04 mg/kg, single IV bolus 0.04 mg/kg (n = 6), read-out: CL (clearance), Mean (SD)", "result": 400, "unit": "mL/min"}, {"measurement": "Cmax", "setting": "plasma, iv, 0.04 mg/kg, single IV bolus 0.04 mg/kg (n = 6), read-out: Cmax, Geometric Mean", "result": 2360, "unit": "ng/mL"}, {"measurement": "Cmax", "setting": "plasma, iv, 0.04 mg/kg, single IV bolus 0.04 mg/kg (n = 6), read-out: Cmax, Mean", "result": 2540, "unit": "ng/mL"}, {"measurement": "Vd", "setting": "plasma, iv, 0.04 mg/kg, single IV bolus 0.04 mg/kg (n = 6), read-out: Vss (volume at steady state), Geometric Mean", "result": 9.33, "unit": "L"}, {"measurement": "Vd", "setting": "plasma, iv, 0.04 mg/kg, single IV bolus 0.04 mg/kg (n = 6), read-out: Vss (volume at steady state), Mean", "result": 9.54, "unit": "L"}, {"measurement": "half-life", "setting": "plasma, iv, 0.04 mg/kg, single IV bolus 0.04 mg/kg (n = 6), read-out: t1/2 (terminal elimination half-life), Geometric Mean", "result": 27.4, "unit": "min"}, {"measurement": "half-life", "setting": "plasma, iv, 0.04 mg/kg, single IV bolus 0.04 mg/kg (n = 6), read-out: t1/2 (terminal elimination half-life), Mean (SD)", "result": 29, "unit": "min"}, {"measurement": "AUC(0-t)", "setting": "plasma, iv, 0.06 mg/kg, single IV bolus 0.06 mg/kg (n = 6), read-out: AUClast, Geometric Mean (converted)", "result": 160, "unit": "ng·h/mL"}, {"measurement": "AUC(0-t)", "setting": "plasma, iv, 0.06 mg/kg, single IV bolus 0.06 mg/kg (n = 6), read-out: AUClast, Mean (converted)", "result": 153, "unit": "ng·h/mL"}, {"measurement": "clearance", "setting": "plasma, iv, 0.06 mg/kg, single IV bolus 0.06 mg/kg (n = 6), read-out: CL (clearance), Geometric Mean", "result": 399, "unit": "mL/min"}, {"measurement": "clearance", "setting": "plasma, iv, 0.06 mg/kg, single IV bolus 0.06 mg/kg (n = 6), read-out: CL (clearance), Mean (SD)", "result": 409, "unit": "mL/min"}, {"measurement": "Cmax", "setting": "plasma, iv, 0.06 mg/kg, single IV bolus 0.06 mg/kg (n = 6), read-out: Cmax, Geometric Mean", "result": 2600, "unit": "ng/mL"}, {"measurement": "Cmax", "setting": "plasma, iv, 0.06 mg/kg, single IV bolus 0.06 mg/kg (n = 6), read-out: Cmax, Mean", "result": 3070, "unit": "ng/mL"}, {"measurement": "Vd", "setting": "plasma, iv, 0.06 mg/kg, single IV bolus 0.06 mg/kg (n = 6), read-out: Vss (volume at steady state), Geometric Mean", "result": 8.8, "unit": "L"}, {"measurement": "Vd", "setting": "plasma, iv, 0.06 mg/kg, single IV bolus 0.06 mg/kg (n = 6), read-out: Vss (volume at steady state), Mean", "result": 8.92, "unit": "L"}, {"measurement": "half-life", "setting": "plasma, iv, 0.06 mg/kg, single IV bolus 0.06 mg/kg (n = 6), read-out: t1/2 (terminal elimination half-life), Geometric Mean", "result": 26.3, "unit": "min"}, {"measurement": "half-life", "setting": "plasma, iv, 0.06 mg/kg, single IV bolus 0.06 mg/kg (n = 6), read-out: t1/2 (terminal elimination half-life), Mean (SD)", "result": 26, "unit": "min"}, {"measurement": "AUC(0-t)", "setting": "plasma, iv, 0.08 mg/kg, single IV bolus 0.08 mg/kg (n = 6), read-out: AUClast, Geometric Mean (converted)", "result": 248, "unit": "ng·h/mL"}, {"measurement": "AUC(0-t)", "setting": "plasma, iv, 0.08 mg/kg, single IV bolus 0.08 mg/kg (n = 6), read-out: AUClast, Mean (converted)", "result": 235, "unit": "ng·h/mL"}, {"measurement": "clearance", "setting": "plasma, iv, 0.08 mg/kg, single IV bolus 0.08 mg/kg (n = 6), read-out: CL (clearance), Geometric Mean", "result": 387, "unit": "mL/min"}, {"measurement": "clearance", "setting": "plasma, iv, 0.08 mg/kg, single IV bolus 0.08 mg/kg (n = 6), read-out: CL (clearance), Mean (SD)", "result": 390, "unit": "mL/min"}, {"measurement": "Cmax", "setting": "plasma, iv, 0.08 mg/kg, single IV bolus 0.08 mg/kg (n = 6), read-out: Cmax, Geometric Mean", "result": 3610, "unit": "ng/mL"}, {"measurement": "Cmax", "setting": "plasma, iv, 0.08 mg/kg, single IV bolus 0.08 mg/kg (n = 6), read-out: Cmax, Mean", "result": 4040, "unit": "ng/mL"}, {"measurement": "Vd", "setting": "plasma, iv, 0.08 mg/kg, single IV bolus 0.08 mg/kg (n = 6), read-out: Vss (volume at steady state), Geometric Mean", "result": 9.58, "unit": "L"}, {"measurement": "Vd", "setting": "plasma, iv, 0.08 mg/kg, single IV bolus 0.08 mg/kg (n = 6), read-out: Vss (volume at steady state), Mean", "result": 9.65, "unit": "L"}, {"measurement": "half-life", "setting": "plasma, iv, 0.08 mg/kg, single IV bolus 0.08 mg/kg (n = 6), read-out: t1/2 (terminal elimination half-life), Geometric Mean", "result": 27, "unit": "min"}, {"measurement": "half-life", "setting": "plasma, iv, 0.08 mg/kg, single IV bolus 0.08 mg/kg (n = 6), read-out: t1/2 (terminal elimination half-life), Mean (SD)", "result": 27, "unit": "min"}, {"measurement": "AUC(0-t)", "setting": "plasma, iv, 0.1 mg/kg, single IV bolus 0.10 mg/kg (n = 6), read-out: AUClast, Geometric Mean (converted)", "result": 303, "unit": "ng·h/mL"}, {"measurement": "AUC(0-t)", "setting": "plasma, iv, 0.1 mg/kg, single IV bolus 0.10 mg/kg (n = 6), read-out: AUClast, Mean (converted)", "result": 291, "unit": "ng·h/mL"}, {"measurement": "clearance", "setting": "plasma, iv, 0.1 mg/kg, single IV bolus 0.10 mg/kg (n = 6), read-out: CL (clearance), Geometric Mean", "result": 438, "unit": "mL/min"}, {"measurement": "clearance", "setting": "plasma, iv, 0.1 mg/kg, single IV bolus 0.10 mg/kg (n = 6), read-out: CL (clearance), Mean (SD)", "result": 443, "unit": "mL/min"}, {"measurement": "Cmax", "setting": "plasma, iv, 0.1 mg/kg, single IV bolus 0.10 mg/kg (n = 6), read-out: Cmax, Geometric Mean", "result": 5020, "unit": "ng/mL"}, {"measurement": "Cmax", "setting": "plasma, iv, 0.1 mg/kg, single IV bolus 0.10 mg/kg (n = 6), read-out: Cmax, Mean", "result": 5270, "unit": "ng/mL"}, {"measurement": "Vd", "setting": "plasma, iv, 0.1 mg/kg, single IV bolus 0.10 mg/kg (n = 6), read-out: Vss (volume at steady state), Geometric Mean", "result": 9.02, "unit": "L"}, {"measurement": "Vd", "setting": "plasma, iv, 0.1 mg/kg, single IV bolus 0.10 mg/kg (n = 6), read-out: Vss (volume at steady state), Mean", "result": 9.12, "unit": "L"}, {"measurement": "half-life", "setting": "plasma, iv, 0.1 mg/kg, single IV bolus 0.10 mg/kg (n = 6), read-out: t1/2 (terminal elimination half-life), Geometric Mean", "result": 23.9, "unit": "min"}, {"measurement": "half-life", "setting": "plasma, iv, 0.1 mg/kg, single IV bolus 0.10 mg/kg (n = 6), read-out: t1/2 (terminal elimination half-life), Mean (SD)", "result": 24, "unit": "min"}, {"measurement": "AUC(0-t)", "setting": "plasma, iv, 0.14 mg/kg, single IV bolus 0.14 mg/kg (n = 4), read-out: AUClast, Geometric Mean (converted)", "result": 507, "unit": "ng·h/mL"}, {"measurement": "AUC(0-t)", "setting": "plasma, iv, 0.14 mg/kg, single IV bolus 0.14 mg/kg (n = 4), read-out: AUClast, Mean (converted)", "result": 481, "unit": "ng·h/mL"}, {"measurement": "clearance", "setting": "plasma, iv, 0.14 mg/kg, single IV bolus 0.14 mg/kg (n = 4), read-out: CL (clearance), Geometric Mean", "result": 366, "unit": "mL/min"}, {"measurement": "clearance", "setting": "plasma, iv, 0.14 mg/kg, single IV bolus 0.14 mg/kg (n = 4), read-out: CL (clearance), Mean (SD)", "result": 368, "unit": "mL/min"}, {"measurement": "Cmax", "setting": "plasma, iv, 0.14 mg/kg, single IV bolus 0.14 mg/kg (n = 4), read-out: Cmax, Geometric Mean", "result": 9120, "unit": "ng/mL"}, {"measurement": "Cmax", "setting": "plasma, iv, 0.14 mg/kg, single IV bolus 0.14 mg/kg (n = 4), read-out: Cmax, Mean", "result": 10300, "unit": "ng/mL"}, {"measurement": "Vd", "setting": "plasma, iv, 0.14 mg/kg, single IV bolus 0.14 mg/kg (n = 4), read-out: Vss (volume at steady state), Geometric Mean", "result": 7.84, "unit": "L"}, {"measurement": "Vd", "setting": "plasma, iv, 0.14 mg/kg, single IV bolus 0.14 mg/kg (n = 4), read-out: Vss (volume at steady state), Mean", "result": 7.96, "unit": "L"}, {"measurement": "half-life", "setting": "plasma, iv, 0.14 mg/kg, single IV bolus 0.14 mg/kg (n = 4), read-out: t1/2 (terminal elimination half-life), Geometric Mean", "result": 24.8, "unit": "min"}, {"measurement": "half-life", "setting": "plasma, iv, 0.14 mg/kg, single IV bolus 0.14 mg/kg (n = 4), read-out: t1/2 (terminal elimination half-life), Mean (SD)", "result": 25, "unit": "min"}]}]}
